Values after ≈ are worked out from the molar mass of the structure shown.

This note sets out measurements from patent EP0233105A1 (priority 1986, dated 1987).

One series has as its system virus (Polio type I). Kind of series: microbe, parasite or virus in culture. It counts as cell-based. As to conditions: for EC90 / EC99: Vero; for EC90: read-out: DE90; for EC99: read-out: DE 99; for IT90: therapeutic index = DL50 divided by DE90; for IT99: therapeutic index = DL50 divided by DE99.
Series [1] in a line: Lethal dose 50% (inhibition of growth of normal cells). As to conditions: monkey; concentration inhibiting 50% of growth of normal VERO cells; no unit in table, test concentrations given in microgrammes/ml; read-out: DL50 (the source's name). It counts as cell-based. As to the method: On a par ailleurs déterminé la dose léthale 50% (DL50) la dose efficace 90% et 99% (DE90 et DE99) et l'indice thérapeutique 90 et 99 (IT90 et IT99) en utilisant les méthodes suivantes :
Les composés ont été préparés à la dose 1 mg/ml dans unvolume maximal de 0,1 ml de diméthyl- sulfoxyde et addition jusqu'à 12 ml d'un milieu de maintenance M-2. Les dilutions ont été effectuées avec le milieu de maintenance M-2.
La DL50 est la concentration à laquelle 50% de la croissance des cellules normales est inhibée. Pour cette détermination on a utilisé 5.10^5 cellules VERO en suspension dans 10 ml de milieu E199 additionné de 6% de sérum de veau (CS) et de gentamycine(20 microgrammes/ml). Les composés ont été ajoutés pour obtenir des concentrations finales de 200;100;-75;50;25;10;5;3;2;1;0,1 et 0,01 microgrammes/ml.

Regarding `COc1ccc(-c2oc3ccc(O)cc3c(=O)c2OC)cc1` [3,4'-diméthoxy-6-hydroxyflavone], in the series with virus (Polio type I), the EC90 was 100 µg/mL (≈ 335 µM), the EC99 came to 200 µg/mL, the IT90 worked out at 2 and the IT99 turned out to be 1. For the same molecule, in series [1], the CC50 was 200 µg/mL (≈ 670 µM).

`COc1ccc(-c2oc3c(OC)c(OC)c(OC)c(OC)c3c(=O)c2OC)cc1OC` [3,3',4',5,6,7,8-heptaméthoxyflavone]: in the series on virus (Polio type I), the EC90 amounted to 20 µg/mL (≈ 46.3 µM), the EC99 was determined as 25 µg/mL, the IT90 is 10 and the IT99 is given as 8. For the same molecule, the CC50 in series [1] stood at 200 µg/mL (≈ 463 µM).

Turning to `COc1c(-c2ccc(Cl)cc2)oc2cc(C)ccc2c1=O` [3-méthoxy-4'-chloro-7-méthylflavone], in the series with virus (Polio type I), the EC90 was 10 µg/mL (≈ 33.3 µM), the EC99 is 20 µg/mL, the IT90 is 1 and the IT99 was found to be 0.5. The CC50 in series [1] was determined as 10 µg/mL (≈ 33.3 µM).

As for `COc1c(O)cc2oc(-c3ccc(O)cc3)c(OC)c(=O)c2c1O` [3,6-diméthoxy-4',5,7-trihydroxyflavone], in the series with virus (Polio type I), the EC90 was found to be 0.5 µg/mL (≈ 1.51 µM), the EC99 was determined as 1 µg/mL, the IT90 is on record as 40 and the IT99 is recorded as 20. Besides, the CC50 in series [1] stood at 20 µg/mL (≈ 60.6 µM).

Consider `COc1c(-c2ccc(O)cc2)oc2ccc(C)cc2c1=O` [3-méthoxy-4'-hydroxy-6-methylflavone], for which, in the series on virus (Polio type I), the EC90 came out at 1 µg/mL (≈ 3.54 µM), the EC99 was 5 µg/mL, the IT90 turned out to be 75 and the IT99 came to 15. The CC50 in series [1] is 75 µg/mL (≈ 266 µM).

For `COc1ccc(-c2oc3ccc(OC)cc3c(=O)c2OC)cc1` [3,4',6-triméthoxyflavone], in the series with virus (Polio type I), the EC90 worked out at 2 µg/mL (≈ 6.4 µM), the EC99 was determined as 50 µg/mL, the IT90 stood at 50 and the IT99 is on record as 2. For the same molecule, the CC50 in series [1] stood at 100 µg/mL (≈ 320 µM).

On to `COc1c(-c2ccc(O)cc2)oc2cc(C)ccc2c1=O` [3-méthoxy-4'-hydroxy-7-méthylflavone], for which, in the series on virus (Polio type I), the EC90 worked out at 0.5 µg/mL (≈ 1.77 µM), the EC99 turned out to be 2 µg/mL, the IT90 is given as 50 and the IT99 is on record as 12,5. Besides, in series [1], the CC50 was 25 µg/mL (≈ 88.6 µM).

For `COc1c(-c2ccc(O)cc2)oc2cc(F)ccc2c1=O` [3-méthoxy-4'-hydroxy-7-fluoroflavone], in the series with virus (Polio type I), the EC90 was found to be 1 µg/mL (≈ 3.49 µM), the EC99 was 6 µg/mL, the IT90 is on record as 20 and the IT99 is reported as 3,2. Moreover, the CC50 in series [1] came to 20 µg/mL (≈ 69.9 µM).

As for `COc1ccc(-c2oc3cc(O)c(OC)c(O)c3c(=O)c2OC)cc1` [3,4',6-triméthoxy-5,7-dihydroxyflavone], in the series on virus (Polio type I), the EC90 is 1 µg/mL (≈ 2.9 µM), the EC99 was determined as 10 µg/mL, the IT90 came out at 50 and the IT99 stood at 5. Further, the CC50 in series [1] worked out at 50 µg/mL (≈ 145 µM).

For `COc1c(-c2ccc(O)cc2)oc2ccc(O)cc2c1=O` [3-méthoxy-4',6-dihydroxyflavone], in the series on virus (Polio type I), the EC90 came out at 0.5 µg/mL (≈ 1.76 µM), the EC99 stood at 2 µg/mL, the IT90 amounted to 6 and the IT99 is 1,5. Also, in series [1], the CC50 was 3 µg/mL (≈ 10.6 µM).

Regarding `COc1cc2oc(-c3ccc(O)cc3)c(OC)c(=O)c2c(O)c1OC` [3,6,7-triméthoxy-4',5-dihydroxyflavone], in the series on virus (Polio type I), the EC90 is 0.5 µg/mL (≈ 1.45 µM), the EC99 amounted to 5 µg/mL, the IT90 was 200 and the IT99 was 20. Moreover, the CC50 in series [1] worked out at 100 µg/mL (≈ 290 µM).

Regarding `COc1c(-c2ccc(OCc3ccccc3)cc2)oc2ccccc2c1=O` [3-méthoxy-4'-benzyloxyflavone], in the series on virus (Polio type I), the EC90 turned out to be 30 µg/mL (≈ 83.7 µM), the EC99 is 100 µg/mL, the IT90 is listed as 3,3 and the IT99 is 1. Besides, the CC50 in series [1] was determined as 100 µg/mL (≈ 279 µM).

As for `COc1c(-c2ccc(O)cc2)oc2ccc(Cl)cc2c1=O` [3-méthoxy-4'-hydroxy-6-chloroflavone], in the series on virus (Polio type I), the EC90 stood at 2 µg/mL (≈ 6.61 µM), the EC99 stood at 6 µg/mL, the IT90 was 50 and the IT99 is 17. Moreover, in series [1], the CC50 stood at 100 µg/mL (≈ 330 µM).

With `COc1c(-c2ccc(O)cc2)oc2c(OC)cccc2c1=O` [3,8-diméthoxy-4'-hydroxyflavone], in the series with virus (Polio type I), the EC90 was found to be 10 µg/mL (≈ 33.5 µM), the EC99 came out at 20 µg/mL, the IT90 is recorded as 2,5 and the IT99 is given as 1,2. Further, the CC50 in series [1] came out at 25 µg/mL (≈ 83.8 µM).

On to `COc1c(-c2ccc(O)cc2)oc2cc(Cl)ccc2c1=O` [3-méthoxy-4'-hydroxy-7-chloroflavone], for which, in the series on virus (Polio type I), the EC90 is 5 µg/mL (≈ 16.5 µM), the EC99 was 7 µg/mL, the IT90 came out at 20 and the IT99 is on record as 14,3. Also, the CC50 in series [1] was 100 µg/mL (≈ 330 µM).

On to `COc1ccc2oc(-c3ccc(O)cc3)c(OC)c(=O)c2c1` [3,6-diméthoxy-4'-hydroxyflavone], for which, in the series with virus (Polio type I), the EC90 was 7 µg/mL (≈ 23.5 µM), the EC99 was 25 µg/mL, the IT90 is on record as 29 and the IT99 was found to be 8. For the same molecule, the CC50 in series [1] was 200 µg/mL (≈ 670 µM).

Consider `COc1c(-c2ccc(O)cc2)oc2cccc(OC)c2c1=O` [3,5-diméthoxy-4'-hydroxyflavone], for which, in the series with virus (Polio type I), the EC90 came to 5 µg/mL (≈ 16.8 µM), the EC99 stood at 10 µg/mL, the IT90 is 30 and the IT99 worked out at 15. The CC50 in series [1] is 150 µg/mL (≈ 503 µM).

Consider `COc1c(-c2ccc(O)cc2)oc2ccccc2c1=O` [3-méthoxy-4'-hydroxyflavone], for which, in the series with virus (Polio type I), the EC90 turned out to be 3 µg/mL (≈ 11.2 µM), the EC99 worked out at 6 µg/mL, the IT90 was 3,3 and the IT99 is reported as 1.66. Further, in series [1], the CC50 was found to be 10 µg/mL (≈ 37.3 µM).

Regarding `COc1ccc2c(=O)c(OC)c(-c3ccc(O)cc3)oc2c1` [3,7-diméthoxy-4'-hydroxyflavone], in the series on virus (Polio type I), the EC90 was 1 µg/mL (≈ 3.35 µM), the EC99 came to 5 µg/mL, the IT90 is given as 25 and the IT99 was determined as 5. Besides, the CC50 in series [1] was found to be 25 µg/mL (≈ 83.8 µM).

For the molecule `COc1ccc(-c2oc3c(OC)c(OC)c(OC)c(O)c3c(=O)c2OC)cc1OC` [3,3',4',6,7,8-hexaméthoxy-5-hydroxyflavone], in the series with virus (Polio type I), the EC90 came out at 20 µg/mL (≈ 47.8 µM), the EC99 was 25 µg/mL, the IT90 is reported as 10 and the IT99 was 8. In addition, the CC50 in series [1] turned out to be 200 µg/mL (≈ 478 µM).

`COc1ccc(-c2oc3cc(OC)c(OC)c(OC)c3c(=O)c2OC)cc1OC` [3,3',4',5,6,7-hexaméthoxyflavone]: in the series on virus (Polio type I), the EC90 turned out to be 100 µg/mL (≈ 249 µM), the EC99 came out at 200 µg/mL, the IT90 is listed as 2 and the IT99 was 1. In addition, the CC50 in series [1] amounted to 200 µg/mL (≈ 497 µM).
